In patent US11708326B2, “Immunomodulator compounds” (CHEMOCENTRYX, INC., priority 2017, dated 2023):

Molecular target: human PD-L1 / Human PD-1 (Homo sapiens (Human), UniProt Q9NZQ7)
Test: Enzyme-Linked Immunosorbent Assay (ELISA), human PD-1 binding to plate-coated human PD-L1
Conditions: PD-1/PD-L1 ELISA, absorbance at 450 nm
Protocol: Biological Example: Enzyme-Linked Immunosorbent Assay—ELISA
96 Well plates were coated with 1 μg/mL of human PD-L1 (obtained from R&D) in PBS overnight at 4° C. The wells were then blocked with 2% BSA in PBS (W/V) with 0.05% TWEEN-20 for 1 hour at 37° C. The plates were washed 3 times with PBS/0.05% TWEEN-20 and the compounds were serial diluted (1:5) in dilution medium and added to the ELISA plates. Human PD-1 and biotin 0.3 μg/mL (ACRO Biosystems) were added and incubated for 1 hour at 37° C. then washed 3 times with PBS/0.05% TWEEN-20. A second block was performed with 2% BSA in PBS (W/V)/0.05% TWEEN-20 for 10 min at 37° C. and was washed 3 times with PBS/0.05% TWEEN-20. Streptavidin-HRP was added for 1 hour at 37° C. then washed 3 times with PBS/0.05% TWEEN-20. TMB substrate was added and reacted for 20 min at 37° C. A stop solution (2 N aqueous H2SO4) was added. The absorbance was read at 450 nm using a micro-plate spectrophotometer.

Chain of human PD-L1 / Human PD-1 (Q9NZQ7 19-239): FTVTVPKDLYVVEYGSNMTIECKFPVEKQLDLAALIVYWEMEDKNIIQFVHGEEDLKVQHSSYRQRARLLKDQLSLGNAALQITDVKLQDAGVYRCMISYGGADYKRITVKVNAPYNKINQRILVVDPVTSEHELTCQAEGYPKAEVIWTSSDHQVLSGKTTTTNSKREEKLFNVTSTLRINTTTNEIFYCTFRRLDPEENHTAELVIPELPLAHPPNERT

IC50 [nM] | Structure (SMILES)
≤ 5 | Cc1c(OCCCN2CCC(O)CC2)cccc1-c1cccc2c1CC[C@@H]2Oc1cc(OCc2cncc(C#N)c2)c(CN[C@@](C)(CO)C(=O)O)cc1Cl
≤ 5 | Cc1c(OCCCN2CCC(O)CC2)cccc1-c1cccc2c1CC[C@@H]2Oc1cc(OCCCN2CC[C@@H](O)C2)c(CN[C@@H]2CCCC[C@@H]2O)cc1Cl
≤ 5 | C[C@@](CO)(NCc1cc(Cl)c(OC2CCc3c(-c4cccc(OCCCN5CC(O)C5)c4Cl)cc(F)cc32)cc1OCc1cncc(C#N)c1)C(=O)O (stereo partly shown)
5 to 500 | COc1cc(OC2CCc3c(-c4cccc(OCCCN5CC(O)C5)c4Cl)cccc32)cc(OC)c1CN[C@@](C)(CO)C(=O)O (stereo partly shown)
5 to 500 | N#Cc1cncc(COc2cc(O[C@H]3CCc4c(-c5cccc(OCCCN6CCC(F)CC6)c5Cl)cccc43)c(Cl)cc2CN[C@@H]2CCCC[C@H]2F)c1
5 to 500 | N#Cc1cncc(COc2cc(O[C@H]3CCc4c(-c5cccc(OCCCn6ccnc6)c5Cl)cccc43)c(Cl)cc2CN[C@@H]2CCCC[C@@H]2O)c1
5 to 500 | Cc1c(OCCCN2CCC(F)CC2)cccc1-c1cc(F)cc2c1CCC2Oc1cc(OCc2cc(C#N)cc(C#N)c2)c(CN[C@H]2CCC(=O)NC2)cc1Cl (stereo partly shown)
5 to 500 | CCOc1cc(NC2CCc3c(-c4cccc(OCCCN5CCC(C)(F)CC5)c4C)cccc32)c(Cl)cc1CNC[C@@H]1CCC(=O)N1 (stereo partly shown)
5 to 500 | CCOc1cc(O[C@@H]2c3cccc(-c4cccc(OCCCN5CCC(C)(F)CC5)c4C)c3C[C@@H]2F)c(Cl)cc1CNC(C(=O)NS(C)(=O)=O)[C@@H](C)O (stereo partly shown)
5 to 500 | CCOc1cc(NC2CCc3c(-c4cccc(OCCCN5CCCC5(C)C)c4C)cccc32)c(Cl)cc1CNC[C@@H]1CCC(=O)N1 (stereo partly shown)
